The values below come from patent US20240336657A1, “G-ALPHA-S PEPTIDE INHIBITORS AND USES THEREOF” (The Regents of the University of California, priority 2021, published 2024).

For data set [1], the system named is HeLa cells stably expressing HaloTag. Nature of the data set: Chloroalkane penetration assay (CAPA). The data set is classed as in vitro ADME, human. Particulars: chloroalkane-tagged (ct) peptide; HeLa cells; ct-TAMRA chase. The text has this: We first tested the cell permeability of GD20, as peptide-based chemical probes often suffer from poor cell permeability. […] In order to quantitatively evaluate the cell permeability of GD20, we used a recently developed HaloTag-based assay known as a chloroalkane penetration assay (CAPA) (Figure S6I) (Peraro et al., 2018). HeLa cells stably expressing HaloTag localized to the mitochondrial outer membrane were pulsed with chloroalkane-tagged molecules (ct-molecule), washed, chased with chloroalkane-tagged TAMRA fluorophore (ct-TAMRA), and finally analyzed by flow cytometry. A lower ct-TAMRA fluorescent signal indicates competition from a higher cytosolic concentration of ct-molecule. The carboxyl terminus of GD20 (G15) was conjugated with a chloroalkane tag to make ct-GD20 (FIG. 23A).
The cell lines used for CAPA were HeLa cell lines, generated by Chenoweth and co-workers, that stably express HaloTag exclusively in the cytosol (Peraro et al., 2018). Cells were seeded in a 96-well plate the day before the experiment at a density of 4×10^4 cells per well. The day of the experiment the media was aspirated, and 100 μL of cyclic peptide dilutions in DMEM were added to the cells. Plate was incubated for 19.5 h at 37° C. with 5% CO2. […] The cells were then trypsinized, quenched with DMEM, resuspended in PBS, and analyzed using a benchtop flow cytometer (CytoFLEX, Beckman).

Data set [2] in a line: Chemical stability assay in DMEM with 10% FBS. The format is in vitro ADME. Particulars: bovine, 37° C., values represent 95% confidence intervals. The method, then: These assays were conducted by Pharmaron Beijing CO., Ltd. Cyclic peptides working solutions were prepared at 10 μM in DMEM with 10% FBS (Avantor, Cat #76294-180) or human plasma (Pooled, Male & Female, BioIVT, Cat #HMN666664). The assays were performed in duplicate. Vials were incubated at 37° C. at 60 rpm in a water bath and taken at designated time points including 0, 480, 1080 and 1440 min. For each time point, the initiation of the reaction was staggered so all the time points were terminated with cold acetonitrile containing internal standards (IS, 100 nM alprazolam, 200 nM labetalol, 200 nM Imipramine and 2 μM ketoplofen) at the same time. Samples were vortexed then centrifuged at 4° C. to remove proteins. The supernatants from centrifugation were diluted by ultra-pure H2O and used for LC-MS/MS analysis. All calculations were carried out using GraphPad Prism. Remaining percentages of parent compounds at each time point were estimated by determining the peak area ratios from extractedion chromatograms.

A further data set concerns the target Gαs (Homo sapiens, UniProt P63092). Put plainly: GTPγS binding assay ([35S]GTPγS). Also noted: made in house; host or cells: Escherichia coli BL21(DE3). The data set is classed as biochemical. The method, then:
Gα proteins were diluted to 10 μM with dilution buffer (20 mM HEPES 7.5, 150 mM NaCl, 1 mM MgCl2, 2 mM DTT, and 20 μM GDP) and incubated with 5× stocks of cyclic peptides at room temperature for 2 hours. GTPγS binding was initiated by mixing with the reaction buffer at room temperature (50 nM [35S]GTPγS and 100 μM GTPγS in dilution buffer) at room temperature. At various time points, 10 μL of the sample was removed and mixed with 390 μL of ice-cold wash buffer (20 mM HEPES 7.5, 150 mM NaCl, 20 mM MgCl2). The mixture was filtered through a mixed cellulose membrane (25 mm, 0.22 μm). The membrane was washed by ice-cold wash buffer (500 μL×3), put in a 6-mL plastic vial and air-dried (room temperature 1.5 h). 5 mL of CytoScint-ES Liquid Scintillation Cocktail (MP Biomedicals) was added to each vial. After incubation overnight at room temperature, the vial was used for liquid scintillation counting with a LS 6500 Multi-Purpose Scintillation Counter. A standard curve was generated using [35S]GTPγS. The radioactive activity (Counts per minute) of the samples were converted to the GTPγS concentration. The GTPγS binding curves were fitted by the software GraphPad Prism using the following equation to calculate the apparent GTPγS binding rates (kapp): […]
in which “Y” is the concentration of GTPγS that bound to Gα protein at time “X” (minutes).

The structures appear in SMILES notation. Positions of bridges follow the written chain, without caps; N, C: chain ends. Non-standard residues stand in square brackets, D forms with d. Residues, ends and D or L forms follow the SMILES beside them.

For orientation: half-life means the time needed for the level to fall by half in the phase considered.

Gαs, sequence (P63092 1-380 isoform P63092-2): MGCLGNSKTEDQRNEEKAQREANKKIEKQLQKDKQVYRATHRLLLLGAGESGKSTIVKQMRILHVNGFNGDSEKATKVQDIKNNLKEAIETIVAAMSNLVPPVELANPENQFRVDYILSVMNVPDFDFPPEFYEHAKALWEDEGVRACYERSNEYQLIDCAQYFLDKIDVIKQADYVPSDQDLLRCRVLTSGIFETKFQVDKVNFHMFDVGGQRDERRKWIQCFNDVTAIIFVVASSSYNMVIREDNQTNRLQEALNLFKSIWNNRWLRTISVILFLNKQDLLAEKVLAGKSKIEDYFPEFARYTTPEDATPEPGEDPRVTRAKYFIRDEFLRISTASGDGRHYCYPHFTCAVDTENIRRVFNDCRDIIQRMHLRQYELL

For the compound `CC[C@H](C)[C@@H]1NC(=O)[C@H](CC(C)C)NC(=O)[C@@H](Cc2ccc(O)cc2)NC(=O)CSC[C@@H](C(=O)NCC(N)=O)NC(=O)[C@@H]2CCCN2C(=O)[C@H](CC(C)C)NC(=O)[C@H](CC(N)=O)NC(=O)[C@H](CC(C)C)NC(=O)[C@H](C)NC(=O)[C@H](Cc2c[nH]c3ccccc23)NC(=O)[C@H](CCC(N)=O)NC(=O)[C@H](CCCNC(=N)N)NC(=O)[C@H](Cc2ccccc2)NC(=O)[C@H]([C@@H](C)O)NC1=O` [GD20-F10L] ({CH2CO}-[dY]LITFRQWALNLPCG-NH2; thioether N-14), in data set [1], the “cell permeability (CAPA)” value was “significantly improved cell penetration”. For the same compound, in data set [2], the half-life at 10 μM lay within 2240 to 3020 min.

`CC[C@H](C)[C@@H]1NC(=O)[C@H](C)NC(=O)[C@H](Cc2ccc(O)cc2)NC(=O)[C@H](C(C)C)NC(=O)[C@H](CO)NC(=O)[C@H](CCC(=O)O)NC(=O)[C@H](Cc2ccccc2)NC(=O)[C@@H](Cc2ccc(O)cc2)NC(=O)CSC[C@@H](C(=O)NCC(N)=O)NC(=O)[C@H](CC(C)C)NC(=O)[C@H]([C@@H](C)O)NC(=O)CNC(=O)[C@H](Cc2c[nH]c3ccccc23)NC1=O` [GN13] ({CH2CO}-[dY]FESVYAIWGTLCG-NH2; thioether N-13): the “effect on the apparent rate of GTPγS binding (kapp) to Gαs” value at Gαs is reported as “increased”.
